{
  "source": "patent US4605744A",
  "about": "“Imidazole derivatives” (Hoffmann-La Roche Inc., priority 1985, dated 1986)",
  "assay_in_all_cases": "In vitro antibacterial activity (MIC)",
  "type_in_all_cases": "cell-based",
  "key": {"E. aerogenes 83": {"system": "E. aerogenes 83", "settings": "Klebsiella aerogenes, 83, E. aerogenes 83; read-out: MIC", "summary_of_the_method": "(§1)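 Mueller-Hinton broth carries the compound at 128–0.008 μg/ml; diluted drug may be used fresh or stored frozen at -10° to -70° C before use. Wells are seeded with a 10^-2 dilution of overnight culture and incubated overnight at 37° C.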"}, "E. cloacae P99": {"system": "E. cloacae P99", "settings": "Enterobacter cloacae, P99, E. cloacae P99", "summary_of_the_method": "as §1"}, "K. pneumoniae HE7": {"system": "K. pneumoniae HE7", "settings": "Klebsiella pneumoniae; K. pneumoniae HE7; read-out: MIC", "summary_of_the_method": "as §1"}, "S. aureus Smith": {"system": "S. aureus Smith", "settings": "Staphylococcus aureus, S. aureus Smith; read-out: MIC", "summary_of_the_method": "as §1"}, "P. aeruginosa 8780": {"system": "P. aeruginosa 8780", "settings": "Pseudomonas aeruginosa; P. aeruginosa 8780; read-out: MIC", "summary_of_the_method": "as §1"}, "P. mirabilis 620A": {"system": "P. mirabilis 620A", "settings": "Proteus mirabilis, 620A, P. mirabilis 620A; read-out: MIC", "summary_of_the_method": "as §1"}, "K. pneumoniae 35": {"system": "K. pneumoniae 35", "settings": "Klebsiella pneumoniae; K. pneumoniae 35; read-out: MIC", "summary_of_the_method": "as §1"}, "P. aeruginosa Stone 130": {"system": "P. aeruginosa Stone 130", "settings": "Pseudomonas aeruginosa, STONE130, read-out: MIC", "summary_of_the_method": "as §1"}, "S. marcescens SM": {"system": "S. marcescens SM", "settings": "Serratia marcescens, read-out: MIC", "summary_of_the_method": "as §1"}, "P. aeruginosa 6148B": {"system": "P. aeruginosa 6148B", "settings": "Pseudomonas aeruginosa, read-out: MIC", "summary_of_the_method": "as §1"}, "E. coli 5152": {"system": "E. coli 5152", "settings": "Escherichia coli, 5152, E. coli 5152; read-out: MIC", "summary_of_the_method": "as §1"}, "E. coli R-563": {"system": "E. coli R-563", "settings": "Escherichia coli, R563, E. coli R-563; read-out: MIC", "summary_of_the_method": "as §1"}, "K. pneumoniae 503-994": {"system": "K. pneumoniae 503-994", "settings": "Klebsiella pneumoniae, 503994, K. pneumoniae 503-994; read-out: MIC", "summary_of_the_method": "as §1"}, "E. coli 48": {"system": "E. coli 48", "settings": "Escherichia coli, 48, E. coli 48; read-out: MIC", "summary_of_the_method": "as §1"}, "P. aeruginosa 8710": {"system": "P. aeruginosa 8710", "settings": "Pseudomonas aeruginosa; P. aeruginosa 8710; read-out: MIC", "summary_of_the_method": "as §1"}, "K. pneumoniae 5096": {"system": "K. pneumoniae 5096", "settings": "Klebsiella pneumoniae; K. pneumoniae 5096; read-out: MIC", "summary_of_the_method": "as §1"}, "P. vulgaris 101": {"system": "P. vulgaris 101", "settings": "Proteus vulgaris, 101, P. vulgaris 101; read-out: MIC", "summary_of_the_method": "as §1"}, "S. pneumoniae 6302": {"system": "S. pneumoniae 6302", "settings": "Streptococcus pneumoniae, 6302, S. pneumoniae 6302; read-out: MIC", "summary_of_the_method": "as §1"}, "P. rettgeri ATCC 9250": {"system": "P. rettgeri ATCC 9250", "settings": "Providencia rettgeri, ATCC9250, P. rettgeri ATCC 9250; read-out: MIC", "summary_of_the_method": "as §1"}, "S. marcescens S1": {"system": "S. marcescens S1", "settings": "Serratia marcescens, S1, S. marcescens S1; read-out: MIC", "summary_of_the_method": "as §1"}, "P. aeruginosa 5712": {"system": "P. aeruginosa 5712", "settings": "Pseudomonas aeruginosa; P. aeruginosa 5712; read-out: MIC", "summary_of_the_method": "as §1"}, "E. coli 4": {"system": "E. coli 4", "settings": "Escherichia coli, 4, E. coli 4; read-out: MIC", "summary_of_the_method": "as §1"}, "P. mirabilis 2": {"system": "P. mirabilis 2", "settings": "Proteus mirabilis, 2, P. mirabilis 2; read-out: MIC", "summary_of_the_method": "as §1"}, "K. pneumoniae A": {"system": "K. pneumoniae A", "settings": "Klebsiella pneumoniae, K. pneumoniae A; read-out: MIC", "summary_of_the_method": "as §1"}, "P. vulgaris 100": {"system": "P. vulgaris 100", "settings": "Proteus vulgaris; P. vulgaris 100; read-out: MIC", "summary_of_the_method": "as §1"}, "K. pneumoniae 4964": {"system": "K. pneumoniae 4964", "settings": "Klebsiella pneumoniae, 4964, K. pneumoniae 4964; read-out: MIC", "summary_of_the_method": "as §1"}, "E. cloacae 9295": {"system": "E. cloacae 9295", "settings": "Enterobacter cloacae, 9295, E. cloacae 9295; read-out: MIC", "summary_of_the_method": "as §1"}, "S. schottmuelleri": {"system": "S. schottmuelleri", "settings": "read-out: MIC", "summary_of_the_method": "as §1"}, "P. vulgaris ATCC 6380": {"system": "P. vulgaris ATCC 6380", "settings": "Proteus vulgaris, ATCC6380, P. vulgaris ATCC 6380; read-out: MIC", "summary_of_the_method": "as §1"}, "E. coli 387-1": {"system": "E. coli 387-1", "settings": "Escherichia coli, 3871, E. coli 387-1; read-out: MIC", "summary_of_the_method": "as §1"}, "K. pneumoniae 503-964": {"system": "K. pneumoniae 503-964", "settings": "Klebsiella pneumoniae, 503964; K. pneumoniae 503-964; read-out: MIC", "summary_of_the_method": "as §1"}, "S. marcescens S4": {"system": "S. marcescens S4", "settings": "Serratia marcescens, S4, S. marcescens S4; read-out: MIC", "summary_of_the_method": "as §1"}, "S. pyogenes 4": {"system": "S. pyogenes 4", "settings": "Streptococcus pyogenes, 4, S. pyogenes 4; read-out: MIC", "summary_of_the_method": "as §1"}, "S. typhi P58A": {"system": "S. typhi P58A", "settings": "Salmonella enterica, TYPHI", "summary_of_the_method": "as §1"}, "C. diversus CDC 1663-72": {"system": "C. diversus CDC 1663-72", "settings": "Citrobacter koseri, CDC166372; C. diversus CDC 1663-72; read-out: MIC", "summary_of_the_method": "as §1"}, "P. mirabilis 503-1136": {"system": "P. mirabilis 503-1136", "settings": "Proteus mirabilis, 5031136, P. mirabilis 503-1136; read-out: MIC", "summary_of_the_method": "as §1"}, "P. aeruginosa 503-56": {"system": "P. aeruginosa 503-56", "settings": "Pseudomonas aeruginosa, 50356, P. aeruginosa 503-56; read-out: MIC", "summary_of_the_method": "as §1"}, "C. freundii CDC6": {"system": "C. freundii CDC6", "settings": "Citrobacter freundii, CDC6, C. freundii CDC6; read-out: MIC", "summary_of_the_method": "as §1"}, "S. marcescens 5805": {"system": "S. marcescens 5805", "settings": "Serratia marcescens, 5805, S. marcescens 5805; read-out: MIC", "summary_of_the_method": "as §1"}, "S. marcescens S714": {"system": "S. marcescens S714", "settings": "Serratia marcescens, S714, S. marcescens S714; read-out: MIC", "summary_of_the_method": "as §1"}, "S. pyogenes 503-782": {"system": "S. pyogenes 503-782", "settings": "Streptococcus pyogenes, 503782; S. pyogenes 503-782; read-out: MIC", "summary_of_the_method": "as §1"}, "S. marcescens S147": {"system": "S. marcescens S147", "settings": "Serratia marcescens; S. marcescens S147; read-out: MIC", "summary_of_the_method": "as §1"}, "P. aeruginosa 503-820": {"system": "P. aeruginosa 503-820", "settings": "Pseudomonas aeruginosa, 503820; P. aeruginosa 503-820; read-out: MIC", "summary_of_the_method": "as §1"}, "S. pneumoniae SC": {"system": "S. pneumoniae SC", "settings": "Streptococcus pneumoniae, read-out: MIC", "summary_of_the_method": "as §1"}},
  "note": "Counter-ions that a name gives are not always drawn.",
  "data": [
    {"smiles": "CC1(C)S[C@@H]2[C@H](N=CN3CCC(CC4=NCCN4)CC3)C(=O)N2[C@H]1C(=O)O", "note": "[M, [2S-(2alpha,5alpha,6beta)]-6-[[[4-[(4,5-dihydro-1H-imidazol-2-yl)methyl]-1-piperidinyl]methylene]amino]-3,3-dimethyl-7-oxo-4-thia-1-azabicyclo[3.2.0]heptane-2-carboxylic acid hydrochloride]", "values": [
      {"measurement": "MIC", "setting": "E. aerogenes 83", "value": 2, "unit": "µg/mL"},
      {"measurement": "MIC", "setting": "E. cloacae P99", "value": 0.062, "unit": "µg/mL"},
      {"measurement": "MIC", "setting": "K. pneumoniae HE7", "value": "> 128", "unit": "µg/mL"},
      {"measurement": "MIC", "setting": "S. aureus Smith", "value": 4, "unit": "µg/mL"},
      {"measurement": "MIC", "setting": "P. aeruginosa 8780", "value": 128, "unit": "µg/mL"},
      {"measurement": "MIC", "setting": "P. mirabilis 620A", "value": "> 128", "unit": "µg/mL"},
      {"measurement": "MIC", "setting": "K. pneumoniae 35", "value": 1, "unit": "µg/mL"},
      {"measurement": "MIC", "setting": "P. aeruginosa Stone 130", "value": "> 128", "unit": "µg/mL"},
      {"measurement": "MIC", "setting": "S. marcescens SM", "value": 0.125, "unit": "µg/mL"},
      {"measurement": "MIC", "setting": "P. aeruginosa 6148B", "value": 32, "unit": "µg/mL"},
      {"measurement": "MIC", "setting": "E. coli 5152", "value": 16, "unit": "µg/mL"},
      {"measurement": "MIC", "setting": "E. coli R-563", "value": 0.062, "unit": "µg/mL"},
      {"measurement": "MIC", "setting": "K. pneumoniae 503-994", "value": 0.25, "unit": "µg/mL"},
      {"measurement": "MIC", "setting": "E. coli 48", "value": 0.125, "unit": "µg/mL"},
      {"measurement": "MIC", "setting": "P. aeruginosa 8710", "value": 64, "unit": "µg/mL"},
      {"measurement": "MIC", "setting": "K. pneumoniae 5096", "value": "> 128", "unit": "µg/mL"},
      {"measurement": "MIC", "setting": "P. vulgaris 101", "value": 16, "unit": "µg/mL"},
      {"measurement": "MIC", "setting": "S. pneumoniae 6302", "value": 1, "unit": "µg/mL"},
      {"measurement": "MIC", "setting": "P. rettgeri ATCC 9250", "value": 0.5, "unit": "µg/mL"},
      {"measurement": "MIC", "setting": "S. marcescens S1", "value": 0.25, "unit": "µg/mL"},
      {"measurement": "MIC", "setting": "P. aeruginosa 5712", "value": 128, "unit": "µg/mL"},
      {"measurement": "MIC", "setting": "E. coli 4", "value": 0.062, "unit": "µg/mL"},
      {"measurement": "MIC", "setting": "P. mirabilis 2", "value": 0.5, "unit": "µg/mL"},
      {"measurement": "MIC", "setting": "K. pneumoniae A", "value": 0.062, "unit": "µg/mL"},
      {"measurement": "MIC", "setting": "P. vulgaris 100", "value": 8, "unit": "µg/mL"},
      {"measurement": "MIC", "setting": "K. pneumoniae 4964", "value": 2, "unit": "µg/mL"},
      {"measurement": "MIC", "setting": "E. cloacae 9295", "value": 0.5, "unit": "µg/mL"},
      {"measurement": "MIC", "setting": "S. schottmuelleri", "value": 0.062, "unit": "µg/mL"},
      {"measurement": "MIC", "setting": "P. vulgaris ATCC 6380", "value": 0.25, "unit": "µg/mL"},
      {"measurement": "MIC", "setting": "E. coli 387-1", "value": 0.062, "unit": "µg/mL"},
      {"measurement": "MIC", "setting": "K. pneumoniae 503-964", "value": 0.25, "unit": "µg/mL"},
      {"measurement": "MIC", "setting": "S. marcescens S4", "value": 1, "unit": "µg/mL"},
      {"measurement": "MIC", "setting": "S. pyogenes 4", "value": 1, "unit": "µg/mL"},
      {"measurement": "MIC", "setting": "S. typhi P58A", "value": 0.062, "unit": "µg/mL"},
      {"measurement": "MIC", "setting": "C. diversus CDC 1663-72", "value": 0.062, "unit": "µg/mL"},
      {"measurement": "MIC", "setting": "P. mirabilis 503-1136", "value": 8, "unit": "µg/mL"},
      {"measurement": "MIC", "setting": "P. aeruginosa 503-56", "value": 32, "unit": "µg/mL"},
      {"measurement": "MIC", "setting": "C. freundii CDC6", "value": 0.125, "unit": "µg/mL"},
      {"measurement": "MIC", "setting": "S. marcescens 5805", "value": 1, "unit": "µg/mL"},
      {"measurement": "MIC", "setting": "S. marcescens S714", "value": 0.5, "unit": "µg/mL"},
      {"measurement": "MIC", "setting": "S. pyogenes 503-782", "value": 32, "unit": "µg/mL"},
      {"measurement": "MIC", "setting": "S. marcescens S147", "value": 0.25, "unit": "µg/mL"},
      {"measurement": "MIC", "setting": "P. aeruginosa 503-820", "value": 64, "unit": "µg/mL"},
      {"measurement": "MIC", "setting": "S. pneumoniae SC", "value": 1, "unit": "µg/mL"}
    ]}
  ]
}
